# From the SangsterLogP compilation
row,Structure (SMILES),logP
1,Cc1cccc(C)c1C=NN=c1ccn(CCCc2ccccc2)cc1,3.3
2,Fc1ccc(Cn2ccc(=NN=Cc3ccc(Cl)cc3)cc2)cc1,3.8
3,Clc1cccc(Cl)c1Cn1ccc(=NN=Cc2cccc3ccccc23)cc1,4.3
4,COc1ccccc1C=NN=c1ccn(Cc2ccccc2)cc1,3.3
5,Cc1ccc(C=NN=c2ccn(CCCN3C(=O)c4ccccc4C3=O)cc2)cc1,3.6
6,Brc1ccc(C=NN=c2ccn(Cc3ccccc3)cc2)cc1,3.9
7,Brc1ccc(C=NN=c2ccn(CCCCc3ccccc3)cc2)cc1,3.9
8,O=[N+]([O-])c1ccc(C=NN=c2ccn(Cc3c(Cl)cccc3Cl)cc2)cc1,4
9,Fc1ccc(Br)cc1Cn1ccc(=NN=Cc2ccc(Cl)cc2)cc1,4
10,C(Cc1ccccc1)=NN=c1ccn(Cc2ccccc2)cc1,3.9
11,Cc1ccccc1C=NN=c1ccn(Cc2c(Cl)cccc2Cl)cc1,3.9
12,Brc1ccccc1Cn1ccc(=NN=CCCc2ccccc2)cc1,3.9
13,O=[N+]([O-])c1ccc(C=NN=c2ccn(CCCc3ccccc3)cc2)cc1,3.8
14,Clc1cccc(Cl)c1Cn1ccc(=NN=Cc2ccc(Br)cc2)cc1,3.9
15,O=[N+]([O-])c1ccc(C=NN=c2ccn(CCc3ccccc3)cc2)cc1,3.9
16,COc1ccc(C=NN=c2ccn(CCCCc3ccccc3)cc2)cc1,3.4
17,Cc1ccc(C=NN=c2ccn(CCc3ccccc3)cc2)cc1,4
18,Oc1ccccc1C=NN=c1ccn(Cc2ccccc2)cc1,3.2
19,C(=NN=c1ccn(CCCCc2ccccc2)cc1)c1c2ccccc2cc2ccccc12,4.4
20,Clc1ccc(C=NN=c2ccn(CC=Cc3ccccc3)cc2)cc1,3.9
21,COc1ccccc1C=NN=c1ccn(Cc2c(Cl)cccc2Cl)cc1,3.4

row,Structure (SMILES),logP
1,O=[N+]([O-])c1ccc(C=NN=c2ccn(Cc3ccccc3)cc2)cc1,3.8
2,Clc1cccc(Cl)c1Cn1ccc(=NN=Cc2c3ccccc3cc3ccccc23)cc1,4.4
3,C(=NN=c1ccn(Cc2ccccc2)cc1)c1c2ccccc2cc2ccccc12,4.3
4,COc1ccc(C=NN=c2ccn(CCCCCc3ccccc3)cc2)cc1,3.5
5,C(=NN=c1ccn(CCCc2ccccc2)cc1)c1ccc2ccccc2c1,4.3
6,CCCCCCn1ccc(=NN=Cc2ccc(C)cc2)cc1,3.8
7,Clc1ccccc1C=NN=c1ccn(Cc2ccccc2)cc1,3.8
8,COc1ccc(C=NN=c2ccn(CCCc3ccccc3)cc2)cc1,3.4
9,Cc1ccc(C=NN=c2ccn(Cc3ccccc3)cc2)cc1,3.9
10,C(=NN=c1ccn(Cc2ccccc2)cc1)c1ccc2ccccc2c1,4.2
11,Clc1ccccc1C=NN=c1ccn(CCc2ccccc2)cc1,3.9
12,Cc1ccccc1C=NN=c1ccn(Cc2ccccc2)cc1,3.9
13,Cc1cccc(C)c1C=NN=c1ccn(CCCCc2ccccc2)cc1,3.3
14,Fc1ccc(Cn2ccc(=NN=CCCc3ccccc3)cc2)cc1,3.9
15,COc1cccc(OC)c1C=NN=c1ccn(CCCc2ccccc2)cc1,3.4
16,C(=NN=c1ccn(Cc2ccccc2)cc1)c1cccc2ccccc12,4.2
17,Brc1ccc(C=NN=c2ccn(CCCCCc3ccccc3)cc2)cc1,4
18,C(=NN=c1ccn(Cc2ccc3ccccc3c2)cc1)c1cccc2ccccc12,4.4
19,Fc1ccc(C=NN=c2ccn(Cc3ccccc3)cc2)cc1,3.7
20,Fc1cc(Br)ccc1Cn1ccc(=NN=CCCc2ccccc2)cc1,3.9
21,Clc1cccc(Cl)c1C=NN=c1ccn(Cc2ccccc2)cc1,3.9

row,Structure (SMILES),logP
1,Clc1ccc(C=NN=c2ccn(Cc3ccccc3I)cc2)cc1,3.9
2,COc1cccc(OC)c1C=NN=c1ccn(CCCCCc2ccccc2)cc1,3.5
3,Oc1ccccc1C=NN=c1ccn(CCCc2ccccc2)cc1,3.3
4,Clc1cccc(Cl)c1C=NN=c1ccn(CCCCCc2ccccc2)cc1,4
5,C(Cc1ccccc1)=NN=c1ccn(CCCc2ccccc2)cc1,3.9
6,Clc1ccc(C=NN=c2ccn(Cc3ccccc3Br)cc2)cc1,3.9
7,COc1ccccc1C=NN=c1ccn(Cc2ccc3ccccc3c2)cc1,3.4
8,Clc1ccc(C=NN=c2ccn(CCCc3ccccc3)cc2)cc1,3.9
9,Clc1ccccc1C=NN=c1ccn(CCCc2ccccc2)cc1,3.9
10,Oc1ccccc1C=NN=c1ccn(CCc2ccccc2)cc1,3.3
11,C(CCc1ccccc1)=NN=c1ccn(Cc2ccccc2)cc1,4
12,Cc1ccc(C=NN=c2ccn(CCCCc3ccccc3)cc2)cc1,4
13,COc1ccc(C=NN=c2ccn(CCc3ccccc3)cc2)cc1,3.4
14,C(=NN=c1ccn(CCc2ccccc2)cc1)c1c2ccccc2cc2ccccc12,4.4
15,Cc1cccc(C)c1C=NN=c1ccn(Cc2c(Cl)cccc2Cl)cc1,3.3
16,Cc1ccc(C=NN=c2ccn(CC=Cc3ccccc3)cc2)cc1,4
17,C(=NN=c1ccn(CCc2ccccc2)cc1)c1cccc2ccccc12,4.3
18,COc1cccc(OC)c1C=NN=c1ccn(CCCCc2ccccc2)cc1,3.4
19,Cc1cccc(C=NN=c2ccn(CCCc3ccccc3)cc2)c1,4
20,Brc1ccc(C=NN=c2ccn(CCCc3ccccc3)cc2)cc1,3.9
21,Fc1cccc(C=NN=c2ccn(Cc3ccccc3Br)cc2)c1,3.9

# Other lines, results leading:
row,logP,Structure (SMILES)
1,4.4,C(=NN=c1ccn(CCCCCc2ccccc2)cc1)c1cccc2ccccc12
2,3.4,COc1ccc(C=NN=c2ccn(CCCCCN3C(=O)c4ccccc4C3=O)cc2)cc1
3,4,Cc1cccc(C)c1C=NN=c1ccn(Cc2ccccc2)cc1
4,3.9,Cc1ccc(C=NN=c2ccn(Cc3c(Cl)cccc3Cl)cc2)cc1
5,3.4,COc1ccccc1C=NN=c1ccn(CCc2ccccc2)cc1
6,4,Clc1cccc(Cl)c1C=NN=c1ccn(Cc2c(Cl)cccc2Cl)cc1
7,3.4,COc1cccc(OC)c1C=NN=c1ccn(-c2c(Cl)cccc2Cl)cc1
8,4.3,C(=NN=c1ccn(CCCCc2ccccc2)cc1)c1cccc2ccccc12
9,3.3,COc1ccc(C=NN=c2ccn(Cc3ccccc3)cc2)cc1
10,3.4,COc1ccccc1C=NN=c1ccn(CCCc2ccccc2)cc1
11,3.3,COc1cccc(OC)c1C=NN=c1ccn(Cc2ccccc2)cc1
12,4,C(CCc1ccccc1)=NN=c1ccn(CCCc2ccccc2)cc1
13,3.8,Fc1ccc(C=NN=c2ccn(CCCc3ccccc3)cc2)cc1
14,3.8,Clc1ccc(C=NN=c2ccn(Cc3ccccc3)cc2)cc1
15,4.1,O=C1c2ccccc2C(=O)N1CCCn1ccc(=NN=Cc2ccc3ccccc3c2)cc1
16,4,Cc1ccc(C=NN=c2ccn(CCCc3ccccc3)cc2)cc1
17,4.4,C(=NN=c1ccn(CCCc2ccccc2)cc1)c1c2ccccc2cc2ccccc12
18,3.4,COc1ccc(C=NN=c2ccn(Cc3c(Cl)cccc3Cl)cc2)cc1
19,4,Cc1ccc(C)c(-n2ccc(=NN=Cc3ccc(Cl)cc3)cc2)c1
20,4.1,Cc1ccc(C=NN=c2ccn(CCCCCc3ccccc3)cc2)cc1

row,logP,Structure (SMILES)
1,3.9,Cc1cccc(Cn2ccc(=NN=CCCc3ccccc3)cc2)c1C
2,3.9,O=[N+]([O-])c1ccc(C=NN=c2ccn(CCCCc3ccccc3)cc2)cc1
3,3.3,Cc1cccc(C)c1C=NN=c1ccn(CCc2ccccc2)cc1
4,4,Cc1ccccc1C=NN=c1ccn(CCCc2ccccc2)cc1
5,3.3,Oc1ccccc1C=NN=c1ccn(Cc2c(Cl)cccc2Cl)cc1
6,3.5,COc1ccccc1C=NN=c1ccn(CC=Cc2ccccc2)cc1
7,3.4,Cc1cccc(C)c1C=NN=c1ccn(CCCCCc2ccccc2)cc1
8,3.8,Cc1cccc(C=NN=c2ccn(CCCN3C(=O)c4ccccc4C3=O)cc2)c1
9,4.3,C(=NN=c1ccn(CCCc2ccccc2)cc1)c1cccc2ccccc12
10,3.4,COc1ccc(C=NN=c2ccn(CC=Cc3ccccc3)cc2)cc1
11,3.8,O=[N+]([O-])c1ccc(C=NN=c2ccn(CC=Cc3ccccc3)cc2)cc1
12,4,O=[N+]([O-])c1ccc(C=NN=c2ccn(CCCCCc3ccccc3)cc2)cc1
13,4,Clc1cccc(Cl)c1C=NN=c1ccn(CCc2ccccc2)cc1
14,3.4,COc1cccc(OC)c1C=NN=c1ccn(CCc2ccccc2)cc1
15,4,Clc1cccc(Cl)c1C=NN=c1ccn(CCCCc2ccccc2)cc1
16,3.7,Fc1cccc(C=NN=c2ccn(Cc3ccccc3)cc2)c1
17,3.9,Clc1ccccc1C=NN=c1ccn(Cc2c(Cl)cccc2Cl)cc1
18,3.8,Fc1cccc(C=NN=c2ccn(CCCc3ccccc3)cc2)c1
19,4,Cc1ccc(C=NN=c2ccn(Cc3ccc4ccccc4c3)cc2)cc1
20,4.4,C(=NN=c1ccn(CCCCCc2ccccc2)cc1)c1c2ccccc2cc2ccccc12
